Results reported in ChEMBL document CHEMBL1134487, “Design, synthesis, and biological evaluation of analogues of the antitumor agent, 2-(4-[(7-chloro-2-quinoxalinyl)oxy]phenoxy)propionic acid (XK469)” (2001).

Legend:
Mus musculus [1] = test: Cytotoxicity against sc transplanted Mam-17/Adr tumors of mouse origin, activity expressed as T/C(%) at the dose of 620 mg/kg, iv; type: functional
Mus musculus [2] = test: Cytotoxicity against sc transplanted colon-26 tumors of mouse origin, activity expressed as log10 Kill at the dose of 300 mg/kg, iv; type: functional, organism-based; design: dose 300 mg/kg
Mus musculus [3] = test: Cytotoxicity against sc transplanted L1210 tumors of mouse origin, activity expressed as %body wt. loss at the dose of 332 mg/kg, iv; type: functional
Mus musculus [4] = test: Cytotoxicity against iv transplanted L1210 tumors of mouse origin, activity expressed as %body wt. loss at the dose of 300 mg/kg, iv; type: functional
Mus musculus [5] = test: Cytotoxicity against iv transplanted L1210 tumors of mouse origin, activity expressed as cures at the dose of 300 mg/kg, iv; 0/5 cures; type: functional
Mus musculus [6] = test: Cytotoxicity against sc transplanted Mam-17/0 tumors of mouse origin, activity expressed as cures at the dose of 620 mg/kg, iv;p 0/5 cures; type: functional
Mus musculus [7] = test: Cytotoxicity against sc transplanted DMS273 sm cell tumors of mouse and human origin, activity expressed as log10 Kill at the dose of 175 mg/kg, iv; type: functional, organism-based; design: dose 175 mg/kg
Mus musculus [8] = test: Cytotoxicity against sc transplanted DMS273 sm cell tumors of mouse and human origin, activity expressed as cures at the dose of 175 mg/kg, iv; 0/6 cures; type: functional
Mus musculus [9] = test: Cytotoxicity against sc transplanted Mam-16/C/Taxol tumors of mouse origin, activity expressed as %body wt. loss at the dose of 480 mg/kg, iv; type: functional
Mus musculus [10] = test: Cytotoxicity against sc transplanted Mam-16/C/Adr tumors of mouse origin, activity expressed as […] at the dose of 400 mg/kg, iv; type: functional, organism-based; design: dose 400 mg/kg
Mus musculus [11] = test: In vivo activity tested against C3H mice bearing panc-03 murine tumor measured as% treated/control calculated at 328 mg/kg (po); type: functional
Mus musculus [12] = test: Cytotoxicity against sc transplanted Mam-17/0 tumors of mouse origin, activity expressed as %body wt. loss at the dose of 620 mg/kg, iv; type: functional
Mus musculus [13] = test: Cytotoxicity against iv transplanted L1210 tumors of mouse origin, activity expressed as %ILS at the dose of 300 mg/kg, iv; type: functional
Mus musculus [14] = test: Cytotoxicity against sc transplanted Mam-17/0 tumors of mouse origin, activity expressed as log10 Kill at the dose of 620 mg/kg, iv; type: functional, organism-based; design: dose 620 mg/kg
Mus musculus [15] = test: In vivo activity tested against C3H mice bearing panc-03 murine tumor measured as activity rating at 328 mg/kg (po); type: functional
Mus musculus [16] = test: Cytotoxicity against sc transplanted colon-38 tumors of mouse origin, activity expressed as %body wt lose at the dose of 546 mg/kg, iv; type: functional
Mus musculus [17] = test: Cytotoxicity against sc transplanted Squam-lung-LC12 tumors of mouse origin, activity expressed as log kill at the dose of 400 mg/kg, iv; All cures; type: functional, organism-based; design: dose 400 mg/kg
Mus musculus [18] = test: Cytotoxicity against iv transplanted AML1498 tumors of mouse origin, activity expressed as %ILS at the dose of 165 mg/kg, iv; type: functional
Mus musculus [19] = test: Cytotoxicity against sc transplanted B-16 melanoma tumors of mouse origin, activity expressed as %body wt. loss at the dose of 300 mg/kg, iv; type: functional
Mus musculus [20] = test: Cytotoxicity against sc transplanted Panc-02 tumors of mouse origin, activity expressed as T/C(%) at the dose of 600 mg/kg, iv; type: functional
Mus musculus [21] = test: Cytotoxicity against iv transplanted AML1498 tumors of mouse origin, activity expressed as log10 Kill at the dose of 165 mg/kg, iv; type: functional, organism-based; design: dose 165 mg/kg
Mus musculus [22] = test: Cytotoxicity against sc transplanted Mam-16/C/Taxol tumors of mouse origin, activity expressed as %T/C at the dose of 480 mg/kg, iv; type: functional
Mus musculus [23] = test: Cytotoxicity against iv transplanted AML1498 tumors of mouse origin, activity expressed as cures at the dose of 165 mg/kg, iv; 0/5 cures; type: functional
Mus musculus [24] = test: Cytotoxicity against transplanted Panc-02 tumors of mouse origin, activity expressed as cures at the dose of 600 mg/kg, iv; 0/6 cures; type: functional
Mus musculus [25] = test: Cytotoxicity against sc transplanted Squam-lung-LC12 tumors of mouse, activity expressed as %body wt loss at the dose of 400 mg/kg, iv; type: functional
Mus musculus [26] = test: Cytotoxicity against sc transplanted Panc-03 tumors of mouse origin, activity expressed as %T/C at the dose of 328 mg/kg, po; type: functional
Mus musculus [27] = test: Cytotoxicity against sc transplanted L1210 tumors of mouse origin, activity expressed as log10 Kill at the dose of 332 mg/kg, iv; type: functional, organism-based; design: dose 332 mg/kg
Mus musculus [28] = test: Cytotoxicity against sc transplanted Panc-02 tumors of mouse origin, activity expressed as log10 Kill at the dose of 600 mg/kg, iv; type: functional, organism-based; design: dose 600 mg/kg
Mus musculus [29] = test: Cytotoxicity against sc transplanted Panc-03 tumors of mouse origin, activity expressed as cures at the dose of 328 mg/kg, po; 4/6 cures; type: functional

In the case of `CC(Oc1ccc(Oc2cnc3ccc(Cl)cc3n2)cc1)C(=O)O` (centres undefined), the T/C (Mus musculus [1]) is reported as 2%, the Log kill (Mus musculus [2]) is reported as 1.3 and the Body weight loss (Mus musculus [3]) is reported as -16%. It also gave a Body weight loss (Mus musculus [4]) of -2%, a Cures (Mus musculus [5]) of 0 and a Cures (Mus musculus [6]) of 0. For the same compound, the Log kill (Mus musculus [7]) was 1.6, the Cures (Mus musculus [8]) was 0 and the Body weight loss (Mus musculus [9]) was -11%. For the same compound, the Log kill (Mus musculus [10]) was 4.1, the T/C (Mus musculus [11]) was 0% and the Body weight loss (Mus musculus [12]) was -12%. The ILS at 300 mg/kg (Mus musculus [13]) was 160%, the Log kill (Mus musculus [14]) was 3.4 and the Activity rating (Mus musculus [15]) was over 2.8. For the same compound, the Body weight loss (Mus musculus [16]) was -3.5%, the Log kill (Mus musculus [17]) was “All cures” and the ILS at 165 mg/kg (Mus musculus [18]) was 30%. It also gave a Body weight loss (Mus musculus [19]) of -11%, a T/C (Mus musculus [20]) of 9% and a Log kill (Mus musculus [21]) of 2. It also gave a T/C (Mus musculus [22]) of 14%, a Cures (Mus musculus [23]) of 0 and a Cures (Mus musculus [24]) of 0. The Body weight loss (Mus musculus [25]) was -3%, the T/C (Mus musculus [26]) was 0% and the Log kill (Mus musculus [27]) was 0.8. For the same compound, the Log kill (Mus musculus [28]) was 2.8 and the Cures (Mus musculus [29]) was 4.
